The text below walks through data of patent publication US20220306737A1, “USE OF HIGH-AFFINITY, LIGAND-BLOCKING, HUMANIZED ANTI-T-CELL IMMUNOGLOBULIN DOMAIN AND MUCIN DOMAIN-3 (TIM-3) IGG4 ANTIBODY FOR THE TREATMENT OF MYELOFIBROSIS” (Novartis AG, priority 2019, published 2022).

Entries after “also recorded” stand apart in the source; their conditions may differ.

For data set [1] the following is noted: cited from earlier work.
The test system of data set [2] is broad panel of 26 kinases. As to conditions: tested at 200 nM; cited from earlier work.
For data set [3], the target named is JAK3 (Homo sapiens, UniProt P52333). Particulars: at clinically relevant concentrations; cited from earlier work.
The nature of data set [4]: CPDR001X2105 clinical study in AML/MDS subjects, tolerability. As to conditions: 400 mg IV Q2W and 800 mg IV Q4W. Type of data set: in vivo, human. The method, then:
(§1) In this study, the selection of the MBG453 dose and regimen is based on the currently available clinical safety, efficacy, PK and PK/PD modeling information from the CMBG453X2101 in advanced solid tumors and CPDR001X2105 in AML and MDS trials for MBG453. For solid tumor subjects, both 800 mg IV Q4W and 400 mg IV every 2 weeks (Q2W) are predicted to give sustained target (TIM-3) occupancy of 90% in tumor in >90% of subjects. […] MBG453 single agent is also being evaluated in AML/MDS subjects in the CPDR001X2105 study with Q4W and Q2W regimens. The recommended dose in AML/MDS has not yet been determined, however it is not expected to be different from solid tumors, based on preliminary PK and safety data.

Data set [5] is described as follows: CMBG453X2101 clinical study in advanced solid tumors, safety. Type of data set: in vivo, human. Particulars: any dose up to 1200 mg IV Q2W or Q4W. The protocol: as §1
Data set [6] can be described thus: MBG453 phase I/II development, impact on hematopoiesis. Type of data set: in vivo, human.

Sequence of JAK3 (P52333 whole entry, species assumed): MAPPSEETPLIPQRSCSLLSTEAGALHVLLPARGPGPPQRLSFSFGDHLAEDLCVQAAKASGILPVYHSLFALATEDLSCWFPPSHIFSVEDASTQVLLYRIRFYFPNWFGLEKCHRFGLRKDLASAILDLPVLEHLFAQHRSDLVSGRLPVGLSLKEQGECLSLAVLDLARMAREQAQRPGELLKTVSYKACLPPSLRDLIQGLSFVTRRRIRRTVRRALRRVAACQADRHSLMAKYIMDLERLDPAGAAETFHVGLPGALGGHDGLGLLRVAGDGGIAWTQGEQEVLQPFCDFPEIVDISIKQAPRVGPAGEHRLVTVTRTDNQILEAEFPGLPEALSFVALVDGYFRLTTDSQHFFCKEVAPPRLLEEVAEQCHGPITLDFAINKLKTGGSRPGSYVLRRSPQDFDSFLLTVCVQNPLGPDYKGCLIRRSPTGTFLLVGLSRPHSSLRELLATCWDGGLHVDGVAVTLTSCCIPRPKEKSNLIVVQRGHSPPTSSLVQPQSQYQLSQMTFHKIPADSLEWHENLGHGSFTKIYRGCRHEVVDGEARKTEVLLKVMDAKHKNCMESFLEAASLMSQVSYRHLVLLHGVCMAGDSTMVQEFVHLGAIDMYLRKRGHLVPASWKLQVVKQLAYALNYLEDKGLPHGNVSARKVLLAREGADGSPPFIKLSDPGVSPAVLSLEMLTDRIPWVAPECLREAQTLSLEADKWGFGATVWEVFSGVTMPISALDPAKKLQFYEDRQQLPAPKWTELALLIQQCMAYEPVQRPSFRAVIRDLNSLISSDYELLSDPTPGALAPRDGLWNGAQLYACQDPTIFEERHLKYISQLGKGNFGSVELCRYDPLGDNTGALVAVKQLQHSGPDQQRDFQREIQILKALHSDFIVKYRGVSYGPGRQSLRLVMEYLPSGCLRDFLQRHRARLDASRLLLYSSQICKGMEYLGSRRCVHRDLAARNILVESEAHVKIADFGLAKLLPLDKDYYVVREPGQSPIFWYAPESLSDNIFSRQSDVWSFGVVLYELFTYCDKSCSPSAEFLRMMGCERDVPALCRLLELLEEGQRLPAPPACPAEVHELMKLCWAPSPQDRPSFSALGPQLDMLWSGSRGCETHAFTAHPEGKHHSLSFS

`N#CC[C@H](C1CCCC1)n1cc(-c2ncnc3[nH]ccc23)cn1` [Ruxolitinib, (R)-3-(4-(7H-pyrrolo[2,3-d]pyrimidin-4-yl)-1H-pyrazol-1-yl)-3-cyclopentylpropanenitrile]: in data set [1] (MF patients), the effect on anemia entry is given as “does not improve”; the “effect on splenomegaly (spleen size) and constitutional symptoms of MF” value is reported as “highly effective; also recorded: improvements”. The hematoxicity result in data set [1] (human, in vivo) was “partial transient hematoxicity”. In addition, in data set [2], the “inhibition of a broad panel of 26 kinases” value is recorded as less than 30%. In data set [3], the “inhibition of JAK3” value is on record as “does not inhibit”.

As for “MBG453: anti-TIM-3 antibody disclosed in US Patent Application Publication No. 2015/0218274”, the tolerability result in data set [4] is “well tolerated”. For the same compound, the safety signal result in data set [5] is “No significant safety signal”. The impact on hematopoiesis result in data set [6] was “has not been found to have a negative impact on hematopoiesis”.
